Our source for the CC50 and EC50 values is patent publication US12264159B2, “Functionalized heterocycles as antiviral agents” (Enanta Pharmaceuticals, Inc., priority 2018, dated 2025).

The nature of data set [1]: Compound induced cellular toxicity in HepG2 cells, ATPlite 1Step. In kind it is cell-based. The conditions noted are these: human, three days exposure, 50% reduction of total ATP vs no drug controls. The method, then:
At day 3, post seeding cells are treated with ATPlite 1Step according to the manufacturer's instructions.
(In general: ATP-based viability assays read luminescence as a measure of living cells.)

A further data set concerns HBV in 2.2.15 cells. Briefly: 2.2.15 cells: viral product in cell lysates quantified via quantitative real time PCR. To be noted: Hepatitis B virus, 120 h, day 5 post treatment, 50% reduction of viral product vs no drug controls, readout (qPCR, HBsAg or HBeAg) not specified for the column. It is filed as cell-based, hepatitis B virus (HBV). The method, boiled down: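 HBV product was measured at day 5 by lysate qPCR or by supernatant HBsAg/HBeAg ELISA, in 2.2.15 cells seeded at 35,000/well and exposed to 5-fold compound dilution series (0.5% DMSO). EC50 is 50% reduction of viral product relative to untreated controls.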

Where only a bound is given, the exact number is not on record here.

The compound `C[C@@H]1Cn2nc(-c3ccccc3F)c(-c3ccccc3F)c2-c2cc(=O)c(C(=O)O)cn21` [Example 206, (R)-1,2-bis(2-fluorophenyl)-6-methyl-10-oxo-5,6-dihydro-10H-pyrazolo[1,5-a]pyrido[2,1-c]pyrazine-9-carboxylic acid] returned a CC50 at 3 days in data set [1] of 10 to 25 µM. In addition, in the data set on HBV in 2.2.15 cells, the EC50 is less than 0.1 µM.
The matching figures for `CC(C)(C)[C@@H]1Cn2nc(-c3ccccc3CO)cc2-c2cc(=O)c(C(=O)O)cn21` [Example 84, (R)-6-(tert-butyl)-2-(2-(hydroxymethyl)phenyl)-10-oxo-5,6-dihydro-10H-pyrazolo[1,5-a]pyrido[2,2-c]pyrazine-12-carboxylic acid]: more than 25 µM and 0.2 to 1 µM.
The matching figures for `CC(C)(C)[C@@H]1Cn2nc(C3CC3)c(-c3cncs3)c2-c2cc(=O)c(C(=O)O)cn21` [Example 163, (R)-6-(tert-butyl)-2-cyclopropyl-10-oxo-1-(thiazol-5-yl)-5,6-dihydro-10H-pyrazolo[1,5-a]pyrido[2,1-c]pyrazine-9-carboxylic acid]: more than 25 µM and less than 0.1 µM.
The matching figures for `Cc1cccc(-c2c(-c3ccc(F)cc3)nn3c2-c2cc(=O)c(C(=O)O)cn2[C@H](C(C)(C)C)C3)c1` [Example 170, (R)-6-(tert-butyl)-2-(4-fluorophenyl)-10-oxo-1-(m-tolyl)-5,6-dihydro-10H-pyrazolo[1,5-a]pyrido[2,1-c]pyrazine-9-carboxylic acid]: 10 to 25 µM and less than 0.1 µM.
For the compound `CC(C)(C)[C@@H]1Cn2ncc(-c3cccs3)c2-c2cc(=O)c(C(=O)O)cn21` [Example 109, (R)-6-(tert-butyl)-10-oxo-1-(thiophen-2-yl)-5,6-dihydro-10H-pyrazolo[1,5-a]pyrido[2,1-c]pyrazine-9-carboxylic acid], the CC50 at 3 days in data set [1] was more than 25 µM. Moreover, the EC50 in the data set with HBV in 2.2.15 cells is less than 0.1 µM.
Turning to `CC(C)(C)[C@@H]1Cn2nc(C3CC3)c(-c3cnsc3)c2-c2cc(=O)c(C(=O)O)cn21` [Example 162, (R)-6-(tert-butyl)-2-cyclopropyl-1-(isothiazol-4-yl)-10-oxo-5,6-dihydro-10H-pyrazolo[1,5-a]pyrido[2,1-c]pyrazine-9-carboxylic acid], in data set [1], the CC50 at 3 days was more than 25 µM. In the data set on HBV in 2.2.15 cells, the EC50 was less than 0.1 µM.
The matching figures for `COc1ccc(-c2c(C3CC3)nn3c2-c2cc(=O)c(C(=O)O)cn2[C@H](C(C)(C)C)C3)cc1` [Example 158, (R)-6-(tert-butyl)-2-cyclopropyl-1-(4-methoxyphenyl)-10-oxo-5,6-dihydro-10H-pyrazolo[1,5-a]pyrido[2,1-c]pyrazine-9-carboxylic acid]: more than 25 µM and less than 0.1 µM.
The compound `Cc1cccc(F)c1-c1cc2n(n1)C[C@@H](C(C)(C)C)n1cc(C(=O)O)c(=O)cc1-2` [Example 51, (R)-6-(tert-butyl)-2-(2-fluoro-6-methylphenyl)-10-oxo-5,6-dihydro-10H-pyrazolo[1,5-a]pyrido[2,2-c]pyrazine-12-carboxylic acid] registered a CC50 at 3 days in data set [1] of more than 25 µM. This compound had an EC50 in the data set with HBV in 2.2.15 cells of 0.2 to 1 µM.
In data set [1], `CC(C)(C)[C@@H]1Cn2nc(-c3cccc4c3OCO4)cc2-c2cc(=O)c(C(=O)O)cn21` [Example 26, (R)-2-(benzo[d][1,3]dioxol-4-yl)-6-(tert-butyl)-10-oxo-5,6-dihydro-10H-pyrazolo[1,5-a]pyrido[2,2-c]pyrazine-12-carboxylic acid] showed a cytotoxic concentration (CC50) at 3 days of more than 25 µM. The compound also returned an EC50 in the data set on HBV in 2.2.15 cells of less than 0.1 µM.
`CC(C)(C)[C@@H]1Cn2nc(-c3ccccc3F)c(-c3ccccc3F)c2-c2cc(=O)c(C(=O)O)cn21` [Example 95, (R)-6-(tert-butyl)-1,2-bis(2-fluorophenyl)-10-oxo-5,6-dihydro-10H-pyrazolo[1,5-a]pyrido[2,1-c]pyrazine-9-carboxylic acid] yielded a CC50 at 3 days in data set [1] of more than 25 µM. In the data set with HBV in 2.2.15 cells, this compound gave an EC50 of less than 0.1 µM.
In data set [1], `CC(C)[C@@H]1Cn2nc(-c3ccccc3F)c(-c3ccccc3F)c2-c2c(F)c(=O)c(C(=O)O)cn21` [Example 182, (R)-11-fluoro-1,2-bis(2-fluorophenyl)-6-isopropyl-10-oxo-5,6-dihydro-10H-pyrazolo[1,5-a]pyrido[2,1-c]pyrazine-9-carboxylic acid] displayed a CC50 at 3 days of more than 25 µM. The compound further had an EC50 with HBV in 2.2.15 cells of less than 0.1 µM.
Turning to `CCCOc1ccccc1-c1cc2n(n1)C[C@@H](C(C)(C)C)n1cc(C(=O)O)c(=O)cc1-2` [Example 77, (R)-6-(tert-butyl)-10-oxo-2-(2-propoxyphenyl)-5,6-dihydro-10H-pyrazolo[1,5-a]pyrido[2,2-c]pyrazine-12-carboxylic acid], in data set [1], the CC50 at 3 days was more than 25 µM. The compound also had an EC50 in the data set on HBV in 2.2.15 cells of less than 0.1 µM.
In the same order, the values of `Cc1ccc(-c2c(C3CC3)nn3c2-c2cc(=O)c(C(=O)O)cn2[C@H](C(C)(C)C)C3)cc1` [Example 154, (R)-6-(tert-butyl)-2-cyclopropyl-10-oxo-1-(p-tolyl)-5,6-dihydro-10H-pyrazolo[1,5-a]pyrido[2,1-c]pyrazine-9-carboxylic acid] are more than 25 µM and less than 0.1 µM.
`COc1cccc(C)c1-c1cc2n(n1)C[C@@H](C(C)(C)C)n1cc(C(=O)O)c(=O)cc1-2` [Example 49, (R)-6-(tert-butyl)-2-(2-methoxy-6-methylphenyl)-10-oxo-5,6-dihydro-10H-pyrazolo[1,5-a]pyrido[2,2-c]pyrazine-12-carboxylic acid] gave a CC50 at 3 days in data set [1] of more than 25 µM. The compound further yielded an EC50 in the data set with HBV in 2.2.15 cells of 0.2 to 1 µM.
On to `CC(C)(C)[C@@H]1Cn2nc(-c3cccc4scnc34)cc2-c2cc(=O)c(C(=O)O)cn21` [Example 31, (R)-2-(benzo[d]thiazol-4-yl)-6-(tert-butyl)-10-oxo-5,6-dihydro-10H-pyrazolo[1,5-a]pyrido[2,2-c]pyrazine-12-carboxylic acid], for which, in data set [1], the CC50 at 3 days is more than 25 µM. The compound further gave an EC50 in the data set on HBV in 2.2.15 cells of less than 0.1 µM.
The matching figures for `CC(C)(C)[C@@H]1Cn2nc(-c3cccc(F)c3)c(-c3cccc(F)c3)c2-c2cc(=O)c(C(=O)O)cn21` [Example 94, (R)-6-(tert-butyl)-1,2-bis(3-fluorophenyl)-10-oxo-5,6-dihydro-10H-pyrazolo[1,5-a]pyrido[2,1-c]pyrazine-9-carboxylic acid]: more than 25 µM and less than 0.1 µM.
Consider `CC(C)(C)[C@@H]1Cn2nc(-c3c(F)cccc3F)cc2-c2cc(=O)c(C(=O)O)cn21` [Example 29, (R)-6-(tert-butyl)-2-(2,6-difluorophenyl)-10-oxo-5,6-dihydro-10H-pyrazolo[1,5-a]pyrido[2,2-c]pyrazine-12-carboxylic acid], for which, in data set [1], the CC50 at 3 days was more than 25 µM. In the data set with HBV in 2.2.15 cells, this compound registered an EC50 of less than 0.1 µM.
In the same order, the values of `CC(C)(C)[C@@H]1Cn2nc(C3CC3)c(-c3cccc(F)c3)c2-c2cc(=O)c(-c3ncn[nH]3)cn21` [Example 197, (R)-6-(tert-butyl)-2-cyclopropyl-1-(3-fluorophenyl)-9-(1H-1,2,4-triazol-5-yl)-5,6-dihydro-10H-pyrazolo[1,5-a]pyrido[2,1-c]pyrazin-10-one] are more than 25 µM and less than 0.1 µM.
In data set [1], `CC(C)(C)[C@@H]1Cn2nc(-c3ccccc3OCC3CC3)cc2-c2cc(=O)c(C(=O)O)cn21` [Example 75, (R)-6-(tert-butyl)-2-(2-(cyclopropylmethoxy)phenyl)-10-oxo-5,6-dihydro-10H-pyrazolo[1,5-a]pyrido[2,2-c]pyrazine-12-carboxylic acid] showed a CC50 at 3 days of more than 25 µM. In the data set on HBV in 2.2.15 cells, this compound showed an EC50 of less than 0.1 µM.
In the same order, the values of `CC(C)(C)[C@@H]1Cn2ncc(-c3ccc(F)c(F)c3)c2-c2cc(=O)c(C(=O)O)cn21` [Example 110, (R)-6-(tert-butyl)-1-(3,4-difluorophenyl)-10-oxo-5,6-dihydro-10H-pyrazolo[1,5-a]pyrido[2,1-c]pyrazine-9-carboxylic acid] are less than 10 µM and less than 0.1 µM.
For the compound `COCCOc1ccccc1-c1cc2n(n1)C[C@@H](C(C)(C)C)n1cc(C(=O)O)c(=O)cc1-2` [Example 79, (R)-6-(tert-butyl)-2-(2-(2-methoxyethoxy)phenyl)-10-oxo-5,6-dihydro-10H-pyrazolo[1,5-a]pyrido[2,2-c]pyrazine-12-carboxylic acid], in data set [1], the CC50 at 3 days is more than 25 µM. In the data set with HBV in 2.2.15 cells, the EC50 was less than 0.1 µM.
In the same order, the values of `COc1ccc(O)c(-c2cc3n(n2)C[C@@H](C(C)(C)C)n2cc(C(=O)O)c(=O)cc2-3)c1` [Example 56, (R)-6-(tert-butyl)-2-(2-hydroxy-5-methoxyphenyl)-10-oxo-5,6-dihydro-10H-pyrazolo[1,5-a]pyrido[2,2-c]pyrazine-12-carboxylic acid] are more than 25 µM and less than 0.1 µM.
In the same order, the values of `CC(C)(C)[C@@H]1Cn2nc(-c3ccc(F)cc3)c(-c3ccc(F)cc3)c2-c2cc(=O)c(C(=O)O)cn21` [Example 91, (R)-6-(tert-butyl)-1,2-bis(4-fluorophenyl)-10-oxo-5,6-dihydro-10H-pyrazolo[1,5-a]pyrido[2,1-c]pyrazine-9-carboxylic acid] are more than 25 µM and less than 0.1 µM.
Consider `CC(C)c1ccccc1-c1cc2n(n1)C[C@@H](C(C)(C)C)n1cc(C(=O)O)c(=O)cc1-2` [Example 83, (R)-6-(tert-butyl)-2-(2-isopropylphenyl)-10-oxo-5,6-dihydro-10H-pyrazolo[1,5-a]pyrido[2,2-c]pyrazine-12-carboxylic acid], for which, in data set [1], the CC50 at 3 days was more than 25 µM. The compound also had an EC50 with HBV in 2.2.15 cells of 0.2 to 1 µM.
In the same order, the values of `CC(C)(C)[C@@H]1Cn2nc(C3CC3)c(-c3ccc(F)cc3)c2-c2cc(=O)c(-c3ncn[nH]3)cn21` [Example 196, (R)-6-(tert-butyl)-2-cyclopropyl-1-(4-fluorophenyl)-9-(1H-1,2,4-triazol-5-yl)-5,6-dihydro-10H-pyrazolo[1,5-a]pyrido[2,1-c]pyrazin-10-one] are more than 25 µM and less than 0.1 µM.

Usually CC50 stands for the concentration at which the toxic effect on the cells reaches its halfway point. Higher therefore signals better tolerance by the cells. As usually defined, the EC50 is the midpoint of the concentration-response curve. Low values mean an effect from little substance, high ones a need for much substance.
